This note sets out measurements from EP2657347A1, “Electrochemical competitive assay and use thereof” (Université Paris Diderot - Paris 7, priority 2012, dated 2013).

Experiment [1] relates to D-Apt49. In words: Redox-mediated catalytic cyclic voltammetry titration with aptamer. It is filed as binding. The following applies: specificity / enantioselectivity test, Figure 2B. The procedure:
(§1) All experiments were performed in 5 mM Tris buffer (pH 7) containing 10 mM MgCl2 and 50 mM NaCl (Recognition Buffer, RBr). The L-Tym concentration is always 5 µM. For cyclic voltammetric experiments, 1 µM [Os(bpy)3]2+ with 5 µM 1-Tym in a droplet of 50 µL RBr was used. So, before each experiment, the droplet is shaking with a micropipette. This procedure is repeated until we obtain a reproducible and stable voltammogram. Mother solution of Fc-1-Tym was a […] solution in DMF. This product is conserved at 4°C and seal with parafilm. Before each experiment, this solution is diluted 10 times in stabilized DMF, such as 0.2 µL in 50 µL of RBr leads to 5 µM of Fc-1-Tym.
(§2) Cyclic voltammetry measurements were performed with an AUTOLAB PGSTAT 12 potentiostat/galvanostat controlled by computer, and the data were acquired using GPES 4.9007 software (EcoChemie, The Netherlands). Small self-contained electrochemical cells made of 3 screen-printed electrodes on a flat substrate were used for all experiments. The electrodes were printed using a DEK model-65 screen-printer. Working electrodes were 4 mm diameter screen-printed carbon electrodes prepared using a commercial carbon ink (Electrodag PF-470 A) deposited on the top of an underlying Ag layer (Electrodag 418 SS). Counter electrode was obtained using an Ag ink (Electrodag 418 SS).
(§3) Before experiments, the screen-printed carbon electrodes were coated with bovine serum albumin (BSA) by immersing the electrodes in a 1 mg/mL BSA solution for 10 minutes at room temperature. The BSA-modified electrodes were next cycled between 0 V and 0.8 V at v = 0.05 V/s, until of the capacitive background current in cyclic voltammetry was stablized.
The 49-mer aptamer we have used (see here above) is a sequence similar to the one that was previously selected by Vianini et al and successfully applied to chromatographic- and fluorescence-based L-Tym assays. Since direct electrochemical oxidation of phenolic compounds generally leads to electrode passivation and thus to poorly reproducible anodic peak current in cyclic voltammetry (CV), the electrochemical detection of L-Tym was performed by redox-mediated catalytic oxidation of the phenolic function. For such a purpose, we have used the one-electron redox mediator couple [Os^III/II(bpy)3]^3+/2+ which, according to its relatively high standard potential (E^0=+0.58 V vs. Ag/AgCl), is capable to efficiently catalyze the oxidation of phenolic compounds. [drawing 51]
The linear dependence of the peak current with both the square root of scan rate, v, and L-Tym concentration, indicates conditions of total catalysis for which the catalytic peak current response, ip, can be expressed by eq 1. ip = 0.609nFSCT^0 sqrt(DT)sqrt(fv/RT) [formula] where n is the number of electron involved in the catalytic reaction, F the Faraday constant, S the electrode area, C^0T the bulk concentration of L-Tym, and DT the diffusion coefficient of L-Tym. After aptamer addition, the binding reaction (eq 2) is rapidly set at equilibrium. [drawing 53] with Kd the dissociation constant. On the basis of a classical law of action mass and mass balance (i.e., C^0T = CT + CRT, with CT and CRT the free and receptor-bound target concentrations), and assuming a 1:1 binding stoichiometry, the free (χƒ) mole fraction of target in the bulk solution can thus be estimated by eq 3. χf = (CT)/(CT^0) = 1-(Kd + CT^0 + CR^0 -sqrt(((Kd+CT^0+CR^0))^2 -4CT^0 CR^0))/(2CT^0) [formula]
Here, C^0R is the total concentration of the aptamer receptor added to the solution. Under the assumption of a slow interconversion of free and bound target on the time scale of CV experiments, the catalytic peak current can thus be expressed by a linear combination of the catalytic currents related to the free and bound target through eq 4. ip = 0.609nFSCT^0 sqrt(fv/RT)[χfsqrt(DT)+(1-χf)sqrt(DRT)] [formula] where DT and DRT are the diffusion coefficients of the free and receptor-bound target, respectively. […]

For experiment [2], the target named is L-Apt49. In words: Redox-mediated catalytic cyclic voltammetry titration with mirror-image aptamer. It counts as binding. The following applies: nonlinear fit of eq 5; catalytic peak current, Tris buffer. On the procedure: as §1
Cyclic voltammetry measurements were performed with an AUTOLAB PGSTAT 12 potentiostat/galvanostat controlled by computer, and the data were acquired using GPES 4.9007 software (EcoChemie, The Netherlands). Small self-contained electrochemical cells made of 3 screen-printed electrodes on a flat substrate were used for all experiments. […]
From the combination of eqs 3 and 5 and knowledge of the catalytic peak currents determined both in the absence of aptamer (ip^0) [formula] and at extrapolated infinite aptamer concentration (ip^(∞)), [formula] we can write eq 5 which allows to predict the normalized peak current response decreases as a function of aptamer and target concentrations. […]

Experiment [3] concerns D-Apt49. Briefly: Homogeneous electrochemical competitive binding assay in Tris buffer. On the procedure:
as §1, §2, §3
The competitive assay can be described by the two equilibrated binding reactions 6a and 6b, in which Fc-L-Tym is L-tyrosinamide labeled by a redox-active ferrocene group. The ferrocenyl label was here incorporated on the ―OH position of the phenolic group (Scheme 1). Note that under this condition the catalytic oxidation of the phenolic residue is no more possible and only the ferrocene labeled molecule can be detected. [drawing 63] [drawing 64] with Kd = (CTCR)/CRT [formula] Kd^(*) = (CT^(*)CR)/CRT^(*) [formula] where CR is the concentration of free aptamer receptor. […] Ideally, the two binding constants should be as close as possible (Kd ≈ K^*d). The value of K^*d was determined by monitoring in CV the reversible response of 5 µM Fc-L-Tym solution as a function of increasing concentrations of D-Apt49.
The competitive binding assay was achieved from two separate solutions containing a starting mixture of 5 µM Fc- L-Tym and 3 µM or 10 µM D-Apt49, and to which an increasing amount of L-Tym was added. […]

Experiment [4] concerns the target D-Apt49. In words: Cyclic voltammetry titration of ferrocene-labeled target with aptamer. It counts as binding. The following applies: 5 µM Fc-L-Tym, increasing D-Apt49, Tris buffer pH 7.0; fit of eq 5; also used as predetermined value in competitive fits. On the procedure:
as §1
Cyclic voltammetry measurements were performed with an AUTOLAB PGSTAT 12 potentiostat/galvanostat controlled by computer, and the data were acquired using GPES 4.9007 software (EcoChemie, The Netherlands). […]
The competitive assay can be described by the two equilibrated binding reactions 6a and 6b, in which Fc-L-Tym is L-tyrosinamide labeled by a redox-active ferrocene group. […] Note that under this condition the catalytic oxidation of the phenolic residue is no more possible and only the ferrocene labeled molecule can be detected. […] The value of K^*d was determined by monitoring in CV the reversible response of 5 µM Fc-L-Tym solution as a function of increasing concentrations of D-Apt49. […]

Experiment [5] addresses D-Apt49. In words: Homogeneous electrochemical competitive binding assay in 20% fetal bovine serum. On the procedure: • Figure 1: Electrochemically competitive assay of the invention. Left-hand column: before the addition of the sample: a first redox signal is measured. Right-hand column: after the addition of a sample containing the target to be detected or measured: a second redox signal is measured. (A) Homogeneous electrochemically competitive assay: the presence of the target disrupts the complex formed between the oligonucleotide ligand and the redox-labeled target. […] (B) Heterologous electrochemically competitive assay, wherein the oligonucleotide ligand is attached to a solid phase: the presence of the target disrupts the complex formed between the oligonucleotide ligand and the redox-labeled target, thereby inducing a better detection of the redox labeled-target. […] (C) Heterologous electrochemically competitive assay, wherein the oligonucleotide ligand is attached to the electrode: the presence of the target disrupts the complex formed between the oligonucleotide ligand and the redox-labeled target, thereby reducing the detection of the redox labeled-target. […] (f) CV of 1 µM [Os(bpy)3]^2+ alone. […] Error bars: standard deviations from 3 measurements. Plain lines: fits of eq 5 to the experimental data. • Figure 3: (A) CVs (v = 0.05 V s^-1) of 5 mM Tris buffer (pH 7.0) containing 50 mM NaCl, 10 mM Mg^2+, 5 µM Fc-L-Tym and (a) 0 µM, (b) 1 µM, (c) 2 µM, (d) 3 µM, (e) 4 µM (f) 5 µM (g) 7.5 µM (h) 10 µM (i) 12.5 µM and (j) 15 µM of D-Apt49. (B) Normalized anodic peak current response as a function of aptamer concentration. Each data is the average of 3 measurements. Error bars are standard deviations. Plain line: fit of eq 5 to the experimental data. • Figure 4: Competitive binding curves performed in (A) 5 mM Tris buffer (pH 7 + 50 mM NaCl + 10 mM MgCl2) or (B) 20% fetal bovine serum (simply diluted with a 4 mM MgCl2 aqueous solution) as a function of (●, ★, ▼, Δ) L-Tym or (○) D-Tym concentration. (*) Assay of 5 µM L-Tym in the presence of 5 mM D-Tym. The Fc-L-Tym concentration was always C^0T*= 5 µM, whereas the D-Apt49 concentrations were C^0R: (●) 3, (★,○,*) 10, (▼) 40 and (Δ) 100 µM.
The enantiospecificity of the assay was next characterized using the same methodology but for solutions containing the D-Tym enantiomer. […] To evaluate the enantiospecific performance of the aptamer, the assay of trace amount of L-Tym in the presence of a large excess of D-Tym was examined and, as reported in Figure 4A, it has been found possible to detect as low as 5 µM L-Tym in the presence of 5 mM D-Tym. This remarkable performance means that as low as 0.1 % of an enantiomeric impurity in a nonracemic mixture can be assayed in a very short analysis time (<1 min). This is competitive with conventional separation techniques, and one order of magnitude lower than the 1% currently attainable by NMR. Finally, the ability to perform an assay under realistic biological conditions was examined. For such purpose, homogenous electrochemical competitive binding assays of 5-fold diluted fetal bovin serum samples spiked with known amounts of […] were then performed (Figure 4B).

The subject of experiment [6] is L-Apt49. In words: Cyclic voltammetry of ferrocene-labeled target with mirror-image aptamer. It counts as binding. The following applies: not shown.

Regarding `N[C@@H](Cc1ccc(O)cc1)C(=O)O` [L-tyrosine], the “catalytic current response upon the addition of D-Apta49” value with D-Apt49 [1] is reported as “no significant catalytic current response decrease”.

`CC(=O)Nc1ccc(O)cc1` [paracetamol]: the “catalytic current response upon the addition of D-Apta49” value in the experiment with D-Apt49 [1] was “no significant catalytic current response decrease”.

Regarding `NC(=O)[C@H](N)Cc1ccc(O)cc1` [D-Tym, d-tyrosinamide], the Kd at L-Apt49 [2] stood at 3.8 ± 0.7 µM. Also, in the experiment on D-Apt49 [1], the “catalytic current response upon the addition of D-Apta49” value is listed as “no significant catalytic current response decrease”. The “displacement of Fc-L-Tym from D-Apt49” value in the experiment with D-Apt49 [3] (0-100 µM concentration range, 10 µM D-Apt49, Tris buffer) is “no displacement”. Moreover, the response change entry in the experiment on D-Apt49 [3] (concentrations as high as few millimolar) was “without significant response change”.

As for `NC(=O)[C@@H](N)Cc1ccc(O[c-]2cccc2)cc1.[Fe+2].c1cc[cH-]c1` [Fc-L-Tym, O-Ferrocenyltyrosynamide], the Kd on D-Apt49 [4] amounted to 1.2 ± 0.4 µM; on D-Apt49 [5] (5-fold diluted fetal bovine serum, average of the fitted curves, read-out: K^*d (average value)), 75 µM; at D-Apt49 [5] (20% fetal bovine serum, 5 µM Fc-L-Tym, 40 µM D-Apt49, read-out: K^*d) it was 75 µM; on D-Apt49 [5] (20% fetal bovine serum, 5 µM Fc-L-Tym, 100 µM D-Apt49, read-out: K^*d), 75 µM. For the same compound, in the experiment on L-Apt49 [6], the “current change in the presence of L-Apt49” value is given as “absence of current change”.
